In patent US20260130395A1, “Water Dispersible Botanical Compositions” (Aquila Black Limited, priority 2021, published 2026):

Test: Stability of cannabinoid compounds and Vitamin E components in Beverage 2 (AB Red) by LCMSMS
Assay type: physicochemical

**Q.** For `CCCCCc1cc(O)c2c(c1)OC(C)(C)c1ccc(C)cc1-2` [CBN, cannabinol], which “Stability of Plant-Derived Cannabinoid Compounds in AB Red” value (“Stability” for short) (stored at 8° C., 0 days) is on record?
**A.** Its value is 2.81 µg/mL.

**Q.** What about the “Stability” value (stored at 8° C., 1 days) of the same molecule?
**A.** The value was 2.82 µg/mL.

**Q.** What about the “Stability” value (stored at 8° C., 2 days) of the same molecule?
**A.** The value was 2.74 µg/mL.

**Q.** And the “Stability” value (stored at 8° C., 3 days)?
**A.** Its value is 2.83 µg/mL.

**Q.** And the “Stability” value (stored at 8° C., 5 days)?
**A.** The value was 2.78 µg/mL.

**Q.** What about the “Stability” value (stored at 8° C., 8 days) of the same molecule?
**A.** Its value is 2.80 µg/mL.

**Q.** What about the “Stability” value (stored at 8° C., 9 days) of the same molecule?
**A.** The value was 2.74 µg/mL.

**Q.** What about the “Stability” value (stored at 8° C., 10 days) of the same molecule?
**A.** The value was 2.79 µg/mL.

**Q.** What about the “Stability” value (stored at 8° C., 11 days) of the same molecule?
**A.** Its value is 2.73 µg/mL.

**Q.** What about the “Stability” value (stored at 8° C., 12 days) of the same molecule?
**A.** Its value is 2.76 µg/mL.

**Q.** What about the “Stability” value (stored at 8° C., 15 days) of the same molecule?
**A.** The value was 2.77 µg/mL.

**Q.** And the “Stability” value (stored at 8° C., 16 days)?
**A.** The value was 2.83 µg/mL.

**Q.** And the “Stability” value (stored at 8° C., 17 days)?
**A.** Its value is 2.80 µg/mL.

**Q.** And the “Stability” value (stored at 8° C., 18 days)?
**A.** Its value is 2.78 µg/mL.

**Q.** And the “Stability” value (stored at 8° C., 19 days)?
**A.** The value was 2.78 µg/mL.

**Q.** What about the “Stability” value (stored at 8° C., 22 days) of the same molecule?
**A.** Its value is 2.73 µg/mL.

**Q.** What about the “Stability” value (stored at 8° C., 23 days) of the same molecule?
**A.** The value was 2.79 µg/mL.

**Q.** And the “Stability” value (stored at 8° C., 24 days)?
**A.** The value was 2.76 µg/mL.

**Q.** What about the “Stability” value (stored at 8° C., 25 days) of the same molecule?
**A.** The value was 2.83 µg/mL.

**Q.** And the “Stability” value (stored at 8° C., 26 days)?
**A.** The value was 2.79 µg/mL.

**Q.** What about the “Stability” value (stored at 8° C., 29 days) of the same molecule?
**A.** Its value is 2.77 µg/mL.

**Q.** And the “Stability” value (stored at 8° C., 30 days)?
**A.** Its value is 2.77 µg/mL.

**Q.** And the “Stability” value (stored at 8° C., 60 days)?
**A.** Its value is 2.73 µg/mL.

**Q.** And the “Stability” value (stored at 8° C., 90 days)?
**A.** Its value is 2.80 µg/mL.

**Q.** What about the “Stability” value (stored at 8° C., 120 days) of the same molecule?
**A.** The value was 2.69 µg/mL.

**Q.** And the “Stability” value (stored at 8° C., 150 days)?
**A.** The value was 2.69 µg/mL.

**Q.** What about the “Stability” value (stored at 8° C., 180 days) of the same molecule?
**A.** Its value is 2.74 µg/mL.

**Q.** And the “Stability” value (stored at 8° C., 210 days)?
**A.** Its value is 2.69 µg/mL.

**Q.** And the “Stability” value (stored at 8° C., 240 days)?
**A.** The value was 2.74 µg/mL.

**Q.** What about the “Stability” value (stored at 8° C., 270 days) of the same molecule?
**A.** Its value is 2.76 µg/mL.

**Q.** What about the “Stability” value (stored at 8° C., 300 days) of the same molecule?
**A.** Its value is 2.75 µg/mL.

**Q.** And the “Stability” value (stored at 8° C., 330 days)?
**A.** Its value is 2.71 µg/mL.

**Q.** And the “Stability” value (stored at 8° C., 360 days)?
**A.** The value was 2.69 µg/mL.

**Q.** What about the “Stability” value (stored at 8° C., 390 days) of the same molecule?
**A.** The value was 2.72 µg/mL.

**Q.** And the “Stability” value (stored at 8° C., 420 days)?
**A.** Its value is 2.69 µg/mL.

**Q.** And the “Stability” value (stored at 8° C., 450 days)?
**A.** The value was 2.71 µg/mL.

**Q.** And the “Stability” value (stored at 8° C., 480 days)?
**A.** Its value is 2.66 µg/mL.

**Q.** And the “Stability” value (stored at 8° C., 510 days)?
**A.** Its value is 2.62 µg/mL.

**Q.** And the “Stability” value (stored at 8° C., 540 days)?
**A.** Its value is 2.60 µg/mL.

**Q.** What about the “Stability” value (stored at 8° C., 570 days) of the same molecule?
**A.** The value was 2.58 µg/mL.

**Q.** What about the “Stability” value (stored at 21-25° C., 0 days) of the same molecule?
**A.** The value was 2.81 µg/mL.

**Q.** And the “Stability” value (stored at 21-25° C., 1 days)?
**A.** Its value is 2.73 µg/mL.

**Q.** What about the “Stability” value (stored at 21-25° C., 2 days) of the same molecule?
**A.** Its value is 2.83 µg/mL.

**Q.** What about the “Stability” value (stored at 21-25° C., 3 days) of the same molecule?
**A.** Its value is 2.78 µg/mL.

**Q.** And the “Stability” value (stored at 21-25° C., 5 days)?
**A.** The value was 2.71 µg/mL.

**Q.** What about the “Stability” value (stored at 21-25° C., 8 days) of the same molecule?
**A.** The value was 2.74 µg/mL.

**Q.** What about the “Stability” value (stored at 21-25° C., 9 days) of the same molecule?
**A.** The value was 2.72 µg/mL.

**Q.** And the “Stability” value (stored at 21-25° C., 10 days)?
**A.** The value was 2.73 µg/mL.

**Q.** And the “Stability” value (stored at 21-25° C., 11 days)?
**A.** The value was 2.83 µg/mL.

**Q.** And the “Stability” value (stored at 21-25° C., 12 days)?
**A.** Its value is 2.70 µg/mL.

**Q.** And the “Stability” value (stored at 21-25° C., 15 days)?
**A.** Its value is 2.77 µg/mL.

**Q.** What about the “Stability” value (stored at 21-25° C., 16 days) of the same molecule?
**A.** The value was 2.81 µg/mL.

**Q.** And the “Stability” value (stored at 21-25° C., 17 days)?
**A.** Its value is 2.74 µg/mL.

**Q.** And the “Stability” value (stored at 21-25° C., 18 days)?
**A.** The value was 2.80 µg/mL.

**Q.** And the “Stability” value (stored at 21-25° C., 19 days)?
**A.** The value was 2.70 µg/mL.

**Q.** What about the “Stability” value (stored at 21-25° C., 22 days) of the same molecule?
**A.** Its value is 2.70 µg/mL.

**Q.** And the “Stability” value (stored at 21-25° C., 23 days)?
**A.** Its value is 2.82 µg/mL.

**Q.** And the “Stability” value (stored at 21-25° C., 24 days)?
**A.** The value was 2.78 µg/mL.

**Q.** What about the “Stability” value (stored at 21-25° C., 25 days) of the same molecule?
**A.** Its value is 2.84 µg/mL.

**Q.** And the “Stability” value (stored at 21-25° C., 26 days)?
**A.** Its value is 2.70 µg/mL.

**Q.** What about the “Stability” value (stored at 21-25° C., 29 days) of the same molecule?
**A.** The value was 2.78 µg/mL.

**Q.** What about the “Stability” value (stored at 21-25° C., 30 days) of the same molecule?
**A.** The value was 2.77 µg/mL.

**Q.** What about the “Stability” value (stored at 21-25° C., 60 days) of the same molecule?
**A.** The value was 2.78 µg/mL.

**Q.** And the “Stability” value (stored at 21-25° C., 90 days)?
**A.** Its value is 2.75 µg/mL.

**Q.** What about the “Stability” value (stored at 21-25° C., 120 days) of the same molecule?
**A.** Its value is 2.77 µg/mL.

**Q.** What about the “Stability” value (stored at 21-25° C., 150 days) of the same molecule?
**A.** The value was 2.75 µg/mL.

**Q.** And the “Stability” value (stored at 21-25° C., 180 days)?
**A.** The value was 2.70 µg/mL.

**Q.** What about the “Stability” value (stored at 21-25° C., 210 days) of the same molecule?
**A.** The value was 2.70 µg/mL.

**Q.** What about the “Stability” value (stored at 21-25° C., 240 days) of the same molecule?
**A.** The value was 2.73 µg/mL.

**Q.** What about the “Stability” value (stored at 21-25° C., 270 days) of the same molecule?
**A.** Its value is 2.73 µg/mL.

**Q.** And the “Stability” value (stored at 21-25° C., 300 days)?
**A.** The value was 2.70 µg/mL.

**Q.** And the “Stability” value (stored at 21-25° C., 330 days)?
**A.** The value was 2.75 µg/mL.

**Q.** What about the “Stability” value (stored at 21-25° C., 360 days) of the same molecule?
**A.** Its value is 2.72 µg/mL.

**Q.** And the “Stability” value (stored at 21-25° C., 390 days)?
**A.** Its value is 2.65 µg/mL.

**Q.** And the “Stability” value (stored at 21-25° C., 420 days)?
**A.** The value was 2.64 µg/mL.

**Q.** And the “Stability” value (stored at 21-25° C., 450 days)?
**A.** Its value is 2.68 µg/mL.

**Q.** And the “Stability” value (stored at 21-25° C., 480 days)?
**A.** Its value is 2.58 µg/mL.

**Q.** And the “Stability” value (stored at 21-25° C., 510 days)?
**A.** The value was 2.66 µg/mL.

**Q.** What about the “Stability” value (stored at 21-25° C., 540 days) of the same molecule?
**A.** Its value is 2.65 µg/mL.

**Q.** What about the “Stability” value (stored at 21-25° C., 570 days) of the same molecule?
**A.** The value was 2.58 µg/mL.
